Reference: patent publication US12139520B2 (priority 2020, dated 2024)
pEC50: −log10 of the molar value. Bridge positions count the residues as written; N and C are the ends. Square brackets hold non-standard residues; d marks the D form. Peptide text beside a SMILES is read from it. Hyp = O=C(O)[C@@H]1C[C@@H](O)CN1; Cit = NC(=O)NCCC[C@H](N)C(=O)O

Columns and labels:
[1] = target: hAM1 receptor (Homo sapiens, UniProt O60895+Q16602); assay: cAMP assay for in vitro receptor activation, hAM1-R; assay type: cell-based; settings: cAMP assay, hAM1 receptor; read-out: hAM1R EC50
Sequence of hAM1 receptor (Q16602 23-461): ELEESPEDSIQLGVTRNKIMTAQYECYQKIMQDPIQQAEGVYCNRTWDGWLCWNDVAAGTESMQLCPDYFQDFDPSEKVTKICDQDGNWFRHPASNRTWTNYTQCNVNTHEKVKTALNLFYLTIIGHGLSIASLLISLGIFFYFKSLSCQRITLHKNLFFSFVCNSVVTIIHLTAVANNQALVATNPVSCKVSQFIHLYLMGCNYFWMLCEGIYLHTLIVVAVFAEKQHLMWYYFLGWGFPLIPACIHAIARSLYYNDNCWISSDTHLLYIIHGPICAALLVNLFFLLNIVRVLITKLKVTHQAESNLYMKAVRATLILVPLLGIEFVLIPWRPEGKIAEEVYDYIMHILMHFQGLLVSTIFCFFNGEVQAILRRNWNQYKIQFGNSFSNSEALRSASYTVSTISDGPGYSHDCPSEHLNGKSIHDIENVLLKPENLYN
Sequence of hAM1 receptor (O60895 43-175 partner): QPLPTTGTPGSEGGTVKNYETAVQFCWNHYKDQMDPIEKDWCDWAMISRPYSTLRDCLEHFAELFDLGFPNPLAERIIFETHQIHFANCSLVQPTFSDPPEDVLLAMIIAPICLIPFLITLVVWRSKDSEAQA
Method in brief: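 Monoclonal stable hAM1-overexpressing cells, thawed from frozen stock; 8000 cells/well in DPBS + 0.05% casein + 0.5 mM IBMX; read-out cAMP.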

[2] = target: T1, hAMY3 receptor (Homo sapiens, UniProt O60896+P30988); assay: cAMP assay for in vitro receptor activation, hAMY3-R; assay type: cell-based; settings: cAMP assay, hAMY3 receptor; read-out: hAMY3R EC50
T1 sequence (P30988 25-474): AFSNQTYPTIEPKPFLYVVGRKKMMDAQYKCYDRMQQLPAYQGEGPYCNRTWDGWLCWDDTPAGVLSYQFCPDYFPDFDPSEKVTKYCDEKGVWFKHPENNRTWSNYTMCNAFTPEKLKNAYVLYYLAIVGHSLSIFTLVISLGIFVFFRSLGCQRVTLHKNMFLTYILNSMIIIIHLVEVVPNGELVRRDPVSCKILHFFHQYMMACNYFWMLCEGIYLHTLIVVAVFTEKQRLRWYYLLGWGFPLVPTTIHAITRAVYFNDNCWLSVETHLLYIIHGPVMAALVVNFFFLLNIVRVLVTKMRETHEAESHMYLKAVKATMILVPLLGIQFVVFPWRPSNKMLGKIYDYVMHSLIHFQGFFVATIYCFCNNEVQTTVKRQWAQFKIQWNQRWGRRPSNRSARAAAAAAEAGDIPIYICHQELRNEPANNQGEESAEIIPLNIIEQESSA
T1 sequence (O60896 24-148 partner): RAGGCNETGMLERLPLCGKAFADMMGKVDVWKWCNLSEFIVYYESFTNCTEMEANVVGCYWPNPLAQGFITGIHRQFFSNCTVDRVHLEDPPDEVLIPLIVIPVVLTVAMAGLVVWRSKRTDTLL
Method in brief: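 Graded compound concentrations were applied for 30 min at room temperature to stably hAMY3-expressing cells in DPBS, 0.05% casein, 0.5 mM IBMX; cAMP detected by TR-FRET.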

[3] = Physical stability of peptide analogues (Thioflavin T fibrillation); assay type: physicochemical; settings: maximum ThT signal normalized between hAMY maximum and buffer background; 40° C., shaking, four days; pH 7 per table title
Method in brief: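 Peptides in 50 mM sodium acetate pH 4 or 50 mM sodium phosphate pH 7 were preincubated 1 h, mixed with 4 μM ThT, held at 40° C with 700 rpm shaking before each read. Fluorescence (ex 450/em 480 nm) every 10 min for four days; LOESS-smoothed maximum signal normalized in percent between hAMY and buffer.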

| SMILES | pEC50 [1] | pEC50 [2] | Max ThT signal (%) [3] |
| --- | --- | --- | --- |
| CC[C@H](C)[C@H](NC(=O)[C@H](CCC(N)=O)NC(=O)[C@H](CC(=O)O)NC(=O)[C@H](C)NC(=O)[C@H](CC(C)C)NC(=O)[C@H](CCCNC(N)=O)NC(=O)[C@H](CC(N)=O)NC(=O)[C@@H](NC(=O)[C@@H](NC(=O)[C@@H]1CSSC[C@H](NC(=O)[C@@H](N)CCCNC(=N)N)C(=O)N[C@@H](CC(N)=O)C(=O)N[C@@H](C)C(=O)N[C@@H](CO)C(=O)N[C@@H]([C@@H](C)O)C(=O)N1)[C@@H](C)O)C(C)C)C(=O)N[C@H](C(=O)N[C@@H](CCC(N)=O)C(=O)N[C@@H](Cc1ccccc1)C(=O)N[C@@H](CO)C(=O)N[C@@H](CC(N)=O)C(=O)N[C@@H](CCCCN)C(=O)N[C@@H](CC(=O)O)C(=O)N[C@@H](CCCCN)C(=O)N[C@@H](C)C(=O)N[C@@H](CCC(N)=O)C(=O)N[C@H](C(=O)N[C@@H](CO)C(=O)N1CCC[C@H]1C(=O)N1CCC[C@H]1C(=O)N[C@H](C(=O)N[C@@H](CCC(=O)O)C(=O)N[C@H](C(=O)NCC(=O)N1CCC[C@H]1C(=O)N[C@@H](CC(N)=O)C(=O)N[C@@H](CO)C(=O)N1C[C@H](O)C[C@H]1C(N)=O)C(C)C)[C@@H](C)O)C(C)C)[C@@H](C)O [compound 245] (H-RCNASTCTVN[Cit]LADQITQFSNKDKAQVSPPTEVGPNS[Hyp]-NH2; disulfide 2-7; N-terminus assumed) | < 5.30 | 10.77 | 3.350% |
| CC[C@H](C)[C@H](NC(=O)[C@H](CCC(N)=O)NC(=O)[C@H](Cc1c[nH]cn1)NC(=O)[C@H](C)NC(=O)[C@H](CC(C)C)NC(=O)[C@H](CCCNC(N)=O)NC(=O)[C@H](CCC(N)=O)NC(=O)[C@@H](NC(=O)[C@@H](NC(=O)[C@@H]1CSSC[C@H](NC(=O)[C@@H](N)CCCCN)C(=O)N[C@@H](CC(N)=O)C(=O)N[C@@H]([C@@H](C)O)C(=O)N[C@@H](C)C(=O)N[C@@H]([C@@H](C)O)C(=O)N1)[C@@H](C)O)C(C)C)C(=O)N[C@@H](C)C(=O)N[C@@H](CCC(N)=O)C(=O)N[C@@H](Cc1ccccc1)C(=O)N[C@H](C(=O)N[C@@H](CC(=O)O)C(=O)N[C@@H](CCCCN)C(=O)N[C@@H](CC(=O)O)C(=O)N[C@@H](CCCCN)C(=O)N[C@@H](CC(=O)O)C(=O)N[C@@H](CC(N)=O)C(=O)N[C@H](C(=O)N[C@@H](C)C(=O)N1CCC[C@H]1C(=O)N1CCC[C@H]1C(=O)N[C@H](C(=O)N[C@@H](CC(N)=O)C(=O)N[C@H](C(=O)NCC(=O)N[C@@H](CO)C(=O)N[C@@H](CC(N)=O)C(=O)NCC(=O)N1C[C@H](O)C[C@H]1C(N)=O)C(C)C)[C@@H](C)O)C(C)C)[C@@H](C)O [compound 246] (H-KCNTATCTVQ[Cit]LAHQIAQFTDKDKDNVAPPTNVGSNG[Hyp]-NH2; disulfide 2-7) | < 5.30 | 11.00 | 4.200% |
| CC[C@H](C)[C@H](NC(=O)[C@H](CCC(N)=O)NC(=O)[C@H](CC(=O)O)NC(=O)[C@H](C)NC(=O)[C@H](CC(C)C)NC(=O)[C@H](CCCNC(N)=O)NC(=O)[C@H](C)NC(=O)[C@@H](NC(=O)[C@@H](NC(=O)[C@@H]1CSSC[C@H](NC(=O)[C@@H](N)CCCCN)C(=O)N[C@@H](CC(N)=O)C(=O)N[C@@H]([C@@H](C)O)C(=O)N[C@@H](CO)C(=O)N[C@@H]([C@@H](C)O)C(=O)N1)[C@@H](C)O)C(C)C)C(=O)N[C@H](C(=O)N[C@@H](CCC(N)=O)C(=O)N[C@@H](Cc1ccccc1)C(=O)N[C@@H](CO)C(=O)N[C@@H](CC(=O)O)C(=O)N[C@@H](CCCCN)C(=O)N[C@@H](CC(=O)O)C(=O)N[C@@H](CCCCN)C(=O)N[C@@H](C)C(=O)N[C@@H](CC(N)=O)C(=O)N[C@H](C(=O)N[C@@H](CO)C(=O)N1CCC[C@H]1C(=O)N1CCC[C@H]1C(=O)N[C@H](C(=O)N[C@@H](CCC(=O)O)C(=O)N[C@H](C(=O)NCC(=O)N1CCC[C@H]1C(=O)N[C@@H](CC(N)=O)C(=O)N[C@@H](CO)C(=O)N1C[C@H](O)C[C@H]1C(N)=O)C(C)C)[C@@H](C)O)C(C)C)[C@@H](C)O [compound 247] (H-KCNTSTCTVA[Cit]LADQITQFSDKDKANVSPPTEVGPNS[Hyp]-NH2; disulfide 2-7; N-terminus assumed) | < 5.30 | 11.40 | 1.350% |
| CC[C@H](C)[C@H](NC(=O)[C@H](CCC(N)=O)NC(=O)[C@H](Cc1c[nH]cn1)NC(=O)[C@H](C)NC(=O)[C@H](CC(C)C)NC(=O)[C@H](CCCNC(N)=O)NC(=O)[C@H](CCC(N)=O)NC(=O)[C@@H](NC(=O)[C@@H](NC(=O)[C@@H]1CSSC[C@H](NC(=O)[C@@H](N)CCCCN)C(=O)N[C@@H](CC(N)=O)C(=O)N[C@@H]([C@@H](C)O)C(=O)N[C@@H](C)C(=O)N[C@@H]([C@@H](C)O)C(=O)N1)[C@@H](C)O)C(C)C)C(=O)N[C@@H](Cc1ccc(O)cc1)C(=O)N[C@@H](CCC(N)=O)C(=O)N[C@@H](Cc1ccccc1)C(=O)N[C@@H](C)C(=O)N[C@@H](CC(=O)O)C(=O)N[C@@H](CCCCN)C(=O)N[C@@H](CC(=O)O)C(=O)N[C@@H](CCCCN)C(=O)N[C@@H](CC(=O)O)C(=O)N[C@@H](CC(N)=O)C(=O)N[C@H](C(=O)N[C@@H](C)C(=O)N1CCC[C@H]1C(=O)N1CCC[C@H]1C(=O)N[C@H](C(=O)N[C@@H](CC(N)=O)C(=O)N[C@H](C(=O)NCC(=O)N[C@@H](CO)C(=O)N[C@@H](CC(N)=O)C(=O)NCC(=O)N1C[C@H](O)C[C@H]1C(N)=O)C(C)C)[C@@H](C)O)C(C)C [compound 249] (H-KCNTATCTVQ[Cit]LAHQIYQFADKDKDNVAPPTNVGSNG[Hyp]-NH2; disulfide 2-7; N-terminus assumed) | < 5.30 | 11.22 | 15.600% |
| CC[C@H](C)[C@H](NC(=O)[C@H](CCC(N)=O)NC(=O)[C@H](Cc1c[nH]cn1)NC(=O)[C@H](C)NC(=O)[C@H](CC(C)C)NC(=O)[C@H](CCCNC(N)=O)NC(=O)[C@H](CCC(N)=O)NC(=O)[C@@H](NC(=O)[C@@H](NC(=O)[C@@H]1CSSC[C@H](NC(=O)[C@@H](N)CCCCN)C(=O)N[C@@H](CC(N)=O)C(=O)N[C@@H]([C@@H](C)O)C(=O)N[C@@H](C)C(=O)N[C@@H]([C@@H](C)O)C(=O)N1)[C@@H](C)O)C(C)C)C(=O)N[C@@H](Cc1ccc(O)cc1)C(=O)N[C@@H](CCC(N)=O)C(=O)N[C@@H](Cc1ccccc1)C(=O)N[C@H](C(=O)N[C@@H](CC(=O)O)C(=O)N[C@@H](CCCCN)C(=O)N[C@@H](CC(=O)O)C(=O)N[C@@H](C)C(=O)N[C@@H](CC(=O)O)C(=O)N[C@@H](CC(N)=O)C(=O)N[C@H](C(=O)N[C@@H](C)C(=O)N1CCC[C@H]1C(=O)N1CCC[C@H]1C(=O)N[C@H](C(=O)N[C@@H](CC(N)=O)C(=O)N[C@H](C(=O)NCC(=O)N[C@@H](CO)C(=O)N[C@@H](CC(N)=O)C(=O)NCC(=O)N1C[C@H](O)C[C@H]1C(N)=O)C(C)C)[C@@H](C)O)C(C)C)[C@@H](C)O [compound 250] (H-KCNTATCTVQ[Cit]LAHQIYQFTDKDADNVAPPTNVGSNG[Hyp]-NH2; disulfide 2-7; N-terminus assumed) | < 5.30 | 10.96 | 6.400% |
